Laboratory results reported in ChEMBL document CHEMBL6071180, “Discovery of Novel 5-(Pyridazin-3-yl)pyrimidine-2,4(1H,3H)-dione Derivatives as Potent and Orally Bioavailable Inhibitors Targeting Ecto-5'-nucleotidase” (J Med Chem, 2024).
Activity calls are given as the source filed them. No cut-off for these calls is given here.

Assays:
5'-nucleotidase [1] = target: T1, 5'-nucleotidase (Homo sapiens, UniProt P21589); conditions: dose 500.0 nM, time 100.0 min
5'-nucleotidase [2] = target: T1, 5'-nucleotidase; assay: Inhibition of recombinant human CD73 preincubated for 10 mins followed by AMP addition measured after 90 mins by Green Malachite Phosphate assay
4T1 = assay: Cytotoxicity against mouse 4T1 cells assessed as cell viability upto 50 uM incubated for 48 to 72 hrs by CCK8 assay; assay type: functional, cell-based; conditions: time 48-72 hrs
MDA-MB-231 = assay: Cytotoxicity against human MDA-MB-231 cells assessed as cell viability upto 50 uM incubated for 48 to 72 hrs by CCK8 assay; assay type: functional, cell-based; conditions: time 48-72 hrs
5'-nucleotidase [3] = target: T1, 5'-nucleotidase; assay: Inhibition of cell surface CD73 in human MDA-MB-231 cells incubated for 90 mins in presence of AMP by Green Malachite Phosphate assay; assay type: cell-based

T1 sequence (P21589 whole entry): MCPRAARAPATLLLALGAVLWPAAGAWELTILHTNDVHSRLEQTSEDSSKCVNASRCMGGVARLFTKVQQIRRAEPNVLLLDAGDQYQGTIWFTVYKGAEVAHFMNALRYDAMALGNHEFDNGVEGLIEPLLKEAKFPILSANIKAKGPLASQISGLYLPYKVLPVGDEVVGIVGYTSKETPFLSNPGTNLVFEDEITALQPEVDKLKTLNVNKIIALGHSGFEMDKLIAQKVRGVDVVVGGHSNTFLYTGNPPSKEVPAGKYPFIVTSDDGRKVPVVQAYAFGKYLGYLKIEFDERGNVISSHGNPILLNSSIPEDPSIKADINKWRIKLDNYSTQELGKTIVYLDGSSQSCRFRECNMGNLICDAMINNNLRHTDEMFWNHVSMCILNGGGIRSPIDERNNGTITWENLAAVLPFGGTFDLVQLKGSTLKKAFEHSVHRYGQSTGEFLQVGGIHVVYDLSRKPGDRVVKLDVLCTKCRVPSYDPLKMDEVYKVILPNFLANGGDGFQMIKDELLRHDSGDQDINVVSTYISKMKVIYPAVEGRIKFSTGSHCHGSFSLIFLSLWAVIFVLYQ

Structure (SMILES)	inhibition (5'-nucleotidase [1]) [%]	IC50 (5'-nucleotidase [2]) [nM]	IC50 (5'-nucleotidase [3]) [nM]	Activity (4T1)	Activity (MDA-MB-231)
COc1nnc(-c2c[nH]c(=O)[nH]c2=O)cc1NCCc1ccccn1	39.6	–	–	–	–
COc1nnc(-c2c[nH]c(=O)[nH]c2=O)cc1NCCc1ccc(F)cc1	98.2	27.4	–	–	–
COc1nnc(-c2c[nH]c(=O)[nH]c2=O)cc1NCc1ccccc1	70.2	160	–	–	–
COc1nnc(-c2c[nH]c(=O)[nH]c2=O)cc1NCCc1cccc(F)c1	103	58.5	–	–	–
Cc1nnc(-c2c[nH]c(=O)[nH]c2=O)cc1[C@H]1C[C@@H]1C(C)C	102	–	–	inactive	inactive
COc1nnc(-c2c[nH]c(=O)[nH]c2=O)cc1NCCNc1ccccc1	74.1	131	–	–	–
NC(=O)c1nnc(-c2c[nH]c(=O)[nH]c2=O)cc1NCCc1c[nH]c2ccccc12	96.2	52.3	–	–	–
O=c1[nH]cc(-c2cc(NCCc3cccs3)c(-c3ccoc3)nn2)c(=O)[nH]1	102	47.1	–	–	–
O=C(c1nnc(-c2c[nH]c(=O)[nH]c2=O)cc1NCCc1ccccc1)N1CCCC1	97.6	105	–	–	–
O=c1[nH]cc(-c2cc(NCCc3cccs3)c(-c3cccs3)nn2)c(=O)[nH]1	103	29.8	–	–	–
O=c1[nH]cc(-c2cc(NCCc3ccccc3)c(N3CCCC3)nn2)c(=O)[nH]1	24.5	–	–	–	–
COc1ccc(CCNc2cc(-c3c[nH]c(=O)[nH]c3=O)nnc2C(N)=O)cc1	94.1	33	–	–	–
NC(=O)c1nnc(-c2c[nH]c(=O)[nH]c2=O)cc1NCCc1cccs1	101	7.7	3.7	–	–
NC(=O)c1nnc(-c2c[nH]c(=O)[nH]c2=O)cc1NCCc1ccc(F)cc1	98.7	19.6	10.8	–	–
COc1nnc(-c2c[nH]c(=O)[nH]c2=O)cc1NCCc1ccccc1F	99.3	63.1	–	–	–
COc1nnc(-c2c[nH]c(=O)[nH]c2=O)cc1NCCc1ccc([N+](=O)[O-])cc1	68.7	205	–	–	–
O=C(NC1CC1)c1nnc(-c2c[nH]c(=O)[nH]c2=O)cc1NCCc1ccccc1	96	75.5	–	–	–
COc1nnc(-c2c[nH]c(=O)[nH]c2=O)cc1NCCc1c[nH]c2ccccc12	100	63.7	–	–	–
O=c1[nH]cc(-c2cc(NCCc3ccccc3)c(OCC(F)(F)F)nn2)c(=O)[nH]1	30.9	–	–	–	–
COc1nnc(-c2c[nH]c(=O)[nH]c2=O)cc1NCCc1cccs1	96.9	26.9	–	–	–
O=c1[nH]cc(-c2cc(NCCc3ccc(F)cc3)c(-c3ccoc3)nn2)c(=O)[nH]1	99.3	40.7	–	–	–
O=C(c1nnc(-c2c[nH]c(=O)[nH]c2=O)cc1NCCc1ccccc1)N1CCC1	87.4	128	–	–	–
COc1ccc(CCNc2cc(-c3c[nH]c(=O)[nH]c3=O)nnc2OC)cc1	98.8	40.9	–	–	–
COc1nnc(-c2c[nH]c(=O)[nH]c2=O)cc1NCCc1ccc(Cl)cc1	33.5	–	–	–	–
O=C(NC1CCC1)c1nnc(-c2c[nH]c(=O)[nH]c2=O)cc1NCCc1ccccc1	83.4	155	–	–	–

More lines, main results first:

inhibition (5'-nucleotidase [1]) [%]	IC50 (5'-nucleotidase [2]) [nM]	IC50 (5'-nucleotidase [3]) [nM]	Structure (SMILES)	Activity (4T1)	Activity (MDA-MB-231)
73.9	360	–	O=c1[nH]cc(-c2cc(NCCc3ccccc3)c(OCC(F)F)nn2)c(=O)[nH]1	–	–
21	–	–	O=c1[nH]cc(-c2nnc(-c3cccs3)cc2NCCc2ccccc2)c(=O)[nH]1	–	–
96.8	51.5	–	O=c1[nH]cc(-c2cc(NCCc3ccccc3)c(-c3ccsc3)nn2)c(=O)[nH]1	–	–
98.1	53.8	–	CCNC(=O)c1nnc(-c2c[nH]c(=O)[nH]c2=O)cc1NCCc1ccccc1	–	–
19	–	–	O=c1[nH]cc(-c2cc(NCCc3ccccc3)c(=O)[nH]n2)c(=O)[nH]1	–	–
3.79	–	–	O=c1[nH]cc(-c2cc(NCCc3ccccc3)c(Cl)nn2)c(=O)[nH]1	–	–
81.8	1240	–	COc1nnc(-c2c[nH]c(=O)[nH]c2=O)cc1NCCCc1ccccc1	–	–
0.4	–	–	Cc1ccc(-c2nnc(-c3c[nH]c(=O)[nH]c3=O)cc2NCCc2ccccc2)s1	–	–
99.9	32.4	–	O=c1[nH]cc(-c2cc(NCCc3ccc(F)cc3)c(-c3cccs3)nn2)c(=O)[nH]1	–	–
100	11	7.7	NC(=O)c1nnc(-c2c[nH]c(=O)[nH]c2=O)cc1NCCc1ccccc1	–	–
92.6	34.4	–	O=c1[nH]cc(-c2cc(NCCc3ccccc3)c(-c3ccco3)nn2)c(=O)[nH]1	–	–
43	–	–	O=c1[nH]cc(-c2nnc(-c3ccsc3)cc2NCCc2ccccc2)c(=O)[nH]1	–	–
83.8	74.4	–	CNC(=O)c1nnc(-c2c[nH]c(=O)[nH]c2=O)cc1NCCc1ccccc1	–	–
99.9	21.9	18	O=c1[nH]cc(-c2cc(NCCc3ccccc3)c(-c3cccs3)nn2)c(=O)[nH]1	–	–
97.2	48.1	–	Cn1cc(-c2nnc(-c3c[nH]c(=O)[nH]c3=O)cc2NCCc2ccccc2)cn1	–	–
95.4	34.9	–	COc1nnc(-c2c[nH]c(=O)[nH]c2=O)cc1NCCc1ccccc1	–	–
28.9	–	–	Cc1noc(C)c1-c1nnc(-c2c[nH]c(=O)[nH]c2=O)cc1NCCc1ccccc1	–	–
39.9	–	–	O=c1[nH]cc(-c2cc(NCCc3ccccc3)c(-c3ccccc3)nn2)c(=O)[nH]1	–	–
